What was measured:
NRK-52E cells [1] = assay: CCK-8 cell viability assay; assay type: cell-based, rat
Procedure: AAI was prepared to make a series of working dilutions in serum-free DMEM. The NRK-52E cells were plated in 96-well plates at a density of 5 ×10^4 cells/mL for 24 h at 37 °C and then challenged with various concentrations of AAI (0, 1, 2, 4, 8, 16, 32, 64, 128 and 256 μM). Cell viability was assessed using the CCK-8 assay.
NRK-52E cells were seeded in 96-well plates at a density of 5 × 10^4 cells/mL and incubated for 24 h at 37 °C. Following pretreatment with various concentrations of JBP485 (7.8125, 15.625, 31.25, 62.5, 125, and 250 μM) for 2.5 h, the cells were challenged with AAI (11 μM) for 24 h. Cell viability was subsequently assayed using a CCK-8 kit.

NRK-52E cells [2] = assay: Intracellular ROS level by DCFH-DA flow cytometry; assay type: cell-based, rat
Procedure: NRK-52E cells were plated in 6-well culture plates at a density of 5 ×10^4 cells/mL and treated with various concentrations of JBP485 (62.5, 125 and 250 μM) for 2.5 h. After challenge with AAI (11 μM) for 24 h, the cells were harvested and resuspended in 500 μL of DCFH-DA (10 μM) for the detection of ROS by flow cytometry (Becton Dickinson, United States) (Aagaard et al., 2014).

[3] = test system: AAI-induced nephrotoxicity in rats; assay: Toxicity study in rats (AAI-induced nephrotoxicity, AAN): histology, biochemical indicators, oxidative stress markers, Western blotting of kidney; assay type: in vivo, rat
Procedure: For the assessment of toxicity, AAI was suspended in olive oil and JBP485 was dissolved in saline. Rats were randomly divided into the following four groups (n = 5 per group): A control group, which was administered saline intraperitoneally (i.p.) and olive oil orally (p.o.); a JBP485-only group, administered JBP485 i. p. at the dose of 50 mg/kg and olive oil p. o.; an AAI-only group, in which the rats were administered AAI p. o. at the dose of 20 mg/kg and saline i. p.; and a JBP485 + AAI group, where the animals were given AAI p. o. at the dose of 20 mg/kg and JBP485 i. p. at the dose of 50 mg/kg. JBP485 was intraperitoneally administered 2 days before AAI treatment. On day 3 and 30 min after AAI administration, rats were given saline i. p. or JBP485 (50 mg/kg) once daily for 7 days. On day 10, the rats were euthanized and blood, urine, and kidneys were collected for subsequent assays.
Indoxyl sulfate levels in plasma and urine of rats were determined by liquid chromatography-tandem mass spectrometry (LC–MS/MS) (API 3200; Applied Biosystems, Foster City, CA, United States) according to our previous study ([Guo et al., 2013]).
The levels of BUN and CRE in rat plasma were detected following the instructions of the Nanjing Jiancheng Institute of Biotechnology (Nanjing, China). Samples and reagents were added according to the instructions of the kit and reactions were carried out under the specified conditions. Absorbance was measured at 520 nm and 546 nm, respectively, and the quantities were calculated based on the corresponding formula.
For the extraction of total protein, 100 mg of fresh kidney tissue was placed in 1 mL of RIPA buffer containing protease inhibitor, phosphatase inhibitor, and PMSF, cut into small pieces with ophthalmic scissors, homogenized, and placed at 4°C to fully lyse for 20 min, with vortexing every 5 min. Following centrifugation at 12,000 rpm for 20 min at 4°C, the protein concentration in the supernatant was determined using a BCA protein quantification kit. The protein concentrations of all the samples were then adjusted to the lowest protein concentration measured. Subsequently, an appropriate amount of 5× loading buffer was added according to the volume, and the samples were placed in boiling water for 10 min. Equal amounts of protein (40 μg) were separated by SDS–PAGE at constant current (120 mA), transferred to a PVDF membrane by wet transfer, blocked in 5% non-fat dry milk for 2 h, and incubated overnight with primary antibodies. The next day, the samples were incubated with the corresponding secondary antibodies (goat anti-rabbit IgG [H&L], 1:2000, or goat anti-mouse IgG [H&L], 1:2000) for 2 h at room temperature. The protein bands were developed using enhanced chemiluminescence (ECL, YH0009-1, Nanjing Crane Biopharmaceuticals, Nanjing, China) and Tanon-5200 system (Shanghai Tianneng Technology Company, Shanghai, China) while ImageJ 6.0 software was used for analysis.

[4] = JBP485 50 mg/kg i.p. co-administered with AAI 20 mg/kg p.o.
[5] = JBP485 co-administered with AAI
[6] = JBP485 co-administered with AAI vs AAI alone
[7] = JBP485 treatment with AAI vs AAI alone
[8] = AAI group vs control, Western blot

## O=C1N[C@@H](CO)C(=O)N2C[C@H](O)C[C@@H]12 (relative stereo) [JBP485, cyclo-trans-4-L-hydroxyprolyl-L-serine]
NRK-52E cells [1]; JBP485 7.8125-250 μM pretreatment 2.5 h, AAI 11 μM 24 h
  survival rates of NRK-52E cells challenged with AAI: dose-dependently increased
NRK-52E cells [1]; JBP485 alone, concentrations up to 256 μM
  toxicity against NRK-52E cells: no JBP485-related toxicity
NRK-52E cells [2]; JBP485 alone vs control
  ROS production in NRK-52E cells: did not alter
NRK-52E cells [2]; JBP485 co-administered with AAI 11 μM
  AAI-induced rise in ROS production in NRK-52E cells: significantly attenuated
[3]; [4]
  AAI-induced weight loss: significantly prevented
  renal morphology: markedly improved
[3]; JBP485-only treatment group
  expression levels of Bcl-2 and Bax in the kidney: no change
[3]; JBP485 alone 50 mg/kg i.p.
  body weight or renal morphology: did not influence
[3]; JBP485 alone vs control
  kidney histology (H&E): no significant difference
[3]; [5]
  AAI effect on Bax expression in the kidney: notably reversed
  AAI effect on Bcl-2 expression in the kidney: notably reversed
  AAI-induced histopathological effects in the kidney (H&E): significantly mitigated
[3]; [6]
  kidney weight-to-body weight ratio: reduced
  plasma level of BUN: opposite trend
  plasma level of CRE: opposite trend
  plasma level of indoxyl sulfate: opposite trend
  urine level of indoxyl sulfate: opposite trend
[3]; JBP485 co-administered with AAI vs AAI alone, Western blot
  protein expressions of Oat1, Oat3, Oct2, P-gp, Mrp2 and Mate1 in the kidney: significantly increased
[3]; [7]
  AAI effect on HO-1 protein level in the kidney: reversed
  AAI effect on MDA levels in the kidney: reversed
  AAI effect on NQO1 protein level in the kidney: reversed
  AAI effect on SOD level in the kidney: reversed

## COc1cccc2c1cc([N+](=O)[O-])c1c(C(=O)O)cc3c(c12)OCO3 [AAI, Aristolochic Acid I]
NRK-52E cells [1]; CCK-8
  concentration at which proliferation of NRK-52E cells is significantly inhibited (as low as): 2 µM
NRK-52E cells [1]; CCK-8, read-out: IC50 for NRK-52E cells (cytotoxicity)
  IC50: 11 µM
NRK-52E cells [2]; AAI alone 11 μM 24 h vs control
  ROS generation in NRK-52E cells: significant increase
[3]; AAI 20 mg/kg p.o.
  kidney histology (H&E): showed damage
[3]; AAI 20 mg/kg p.o. vs control
  body weight: significantly decreased
  kidney weight-to-body weight ratio: increase
[3]; AAI group vs control
  MDA levels in the kidney: markedly increased
  SOD level in the kidney: significantly decreased
  plasma level of BUN: significantly higher
  plasma level of CRE: significantly higher
  plasma level of indoxyl sulfate: significantly higher
  urine level of indoxyl sulfate: lower
[3]; [8]
  Bax expression in the kidney: increased
  Bcl-2 expression in the kidney: decreased
  HO-1 protein level in the kidney: significantly decreased
  NQO1 protein level in the kidney: significantly decreased
[3]; AAI-treated rats, Western blot
  renal transporter expression (Oat1, Oat3, Oct2, P-gp, Mrp2, Mate1): downregulation

Reference: article PMC12074917, “Molecular pharmacokinetic mechanism of JBP485 against aristolochic acid I (AAI) -induced nephrotoxicity” (Frontiers in Pharmacology, 2025)
